Experimental data as given in the supplement of paper PMC8253809.

Legend:
DIPGX37 [1] = H3.3 K27M diffuse intrinsic pontine glioma line; assay: area under dose-response curve of % growth inhibition (log2 RLU vs DMSO / staurosporine), 1e-11 to 1e-4 M (% x log10 M); higher = more growth inhibition
Procedure, shortened: (§1)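 Patient-derived pHGG/DIPG cell lines and astrocytes were plated in 384-well plates coated with 1% Geltrex and treated in triplicate with a 10-point threefold dilution series whose mean top concentration was 35 μM, for 7 days (3 days for iAstro) at 37 °C and 5% CO2. CellTiter-Glo luminescence was log2-transformed and scaled on each plate to % activity between solvent and positive controls. Area under the curve came from the trapezoid rule applied to a fitted log-logistic curve, or to a smoothing spline where the sigmoid fit failed.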

HGGX6 [2] = H3.3 G34R paediatric high-grade glioma line; assay: as above
Procedure, shortened: as §1

DIPGX29 = H3.3 K27M diffuse intrinsic pontine glioma line; assay: as above
Procedure, shortened: as §1

HGGX39 [3] = paediatric high-grade glioma line; assay: as above
Procedure, shortened: as §1

DIPGX37 [4] = assay: EC50 (inflection of fitted growth-inhibition curve) (log10 M)
Procedure, shortened: (§2)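 Treatment used a pin tool and a 10-point threefold dilution series, mean top concentration 35 μM, run in triplicate on patient-derived pHGG/DIPG cell lines and astrocyte controls in 1% Geltrex-coated 384-well plates. Plates were kept at 37 °C, 5% CO2 for 7 days (iAstro: 3 days). Log2-transformed CellTiter-Glo luminescence was scaled per plate to % activity between negative (solvent) and positive control wells and pooled before fitting. EC50 and maximal response (yFin) came from the three- or four-parameter log-logistic fit chosen by lowest AICc.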

HGGX6 [5] = assay: as above
Procedure, shortened: as §2

HGGX39 [6] = assay: as above
Procedure, shortened: as §2

DIPGX37 [7] = assay: maximal growth inhibition (yFin) relative to DMSO / staurosporine; higher = more efficacious
Procedure, shortened: as §2

HGGX6 [8] = assay: as above
Procedure, shortened: as §2

HGGX39 [9] = assay: as above
Procedure, shortened: as §2

Structure (SMILES)	area under dose-response curve (DIPGX37 [1])	area under dose-response curve (HGGX6 [2])	area under dose-response curve (DIPGX29)	area under dose-response curve (HGGX39 [3])	EC50 (log10 M) (DIPGX37 [4])	EC50 (log10 M) (HGGX6 [5])	EC50 (log10 M) (HGGX39 [6])	maximal growth inhibition (DIPGX37 [7]) [%]	maximal growth inhibition (HGGX6 [8]) [%]	maximal growth inhibition (HGGX39 [9]) [%]
CC(C)(C)C(=O)OCOP(=O)(COCCn1cnc2c(N)ncnc21)OCOC(=O)C(C)(C)C [ADEFOVIR DIPIVOXIL]	53.7	22.2	25.6	36.5	-5.54	-5.06	-5.71	34.3	20.9	21.4
CCCSc1ccc2[nH]c(NC(=O)OC)nc2c1 [ALBENDAZOLE]	60.2	28.7	33.5	66	-6.1	-5.18	-6.13	28.7	23	32
C[C@H]1[C@H](OC(=O)CCC(=O)O)O[C@@H]2O[C@@]3(C)CC[C@H]4[C@H](C)CC[C@@H]1[C@@]24OO3 [ARTESUNATE]	9.88	23.5	8.84	29		-5.03	-4.94		22.2	32.5
CC(C)c1c(C(=O)Nc2ccccc2)c(-c2ccccc2)c(-c2ccc(F)cc2)n1CC[C@@H](O)C[C@@H](O)CC(=O)O [ATORVASTATIN]	66.2	55.5	48	108	-6.26	-4.88	-5.24	22	55.1	84.1
c1ccc(-c2ccc(C(c3ccccc3)n3ccnc3)cc2)cc1 (stereo not given) [BIFONAZOLE]	31.9	16.4	17.3	30.5	-4.75	-4.81		42.4	20.1	
COc1cc2nccc(Oc3ccc(NC(=O)C4(C(=O)Nc5ccc(F)cc5)CC4)cc3)c2cc1OC [CABOZANTINIB]	12.8	33	10.6	37.5		-4.79	-4.62		27.1	60.2
Nc1nc(Cl)nc2c1ncn2[C@@H]1O[C@H](CO)[C@@H](O)[C@@H]1F [CLOFARABINE]	47	40.9	52.4	44.4	-5.4	-5.65		28.4	22.7	
CC(C)n1c(/C=C/C(O)CC(O)CC(=O)O)c(-c2ccc(F)cc2)c2ccccc21 (stereo not given) [FLUVASTATIN]	1.43	54	25.5	51.2		-5.92	-6.08		26.8	23.9
CC[C@H](C)C(=O)O[C@H]1C[C@@H](C)C=C2C=C[C@H](C)[C@H](CC[C@@H]3C[C@@H](O)CC(=O)O3)[C@H]21 [LOVASTATIN]	36.7	29.1	29.8	94.8	-5.76	-5.49	-5.37	23.7	21.5	68
CCCCOc1cc(C(=O)OCCN(CC)CC)ccc1N [OXYBUPROCAINE]	16.5	29.7	11.5	65.7		-5.11	-4.97		26.6	67.2
C#CCC(Cc1cnc2nc(N)nc(N)c2n1)c1ccc(C(=O)N[C@@H](CCC(=O)O)C(=O)O)cc1 (stereo not given in full) [PRALATREXATE]	73	83.2	66.7	116		-7.84	-8.55		22.1	25.5
CCCCOc1ccc(OCCCN2CCOCC2)cc1 [PRAMOXINE]	46.2	23.2	17.3	70.5	-4.83	-4.97	-4.82	55.5	23.9	77
CC(C)c1nc(N(C)S(C)(=O)=O)nc(-c2ccc(F)cc2)c1/C=C/[C@@H](O)C[C@@H](O)CC(=O)O [ROSUVASTATIN]	37.5	30.4	25.2	83.4	-5.85	-5.54	-5.45	22.7	21.2	61.4
N#CC[C@H](C1CCCC1)n1cc(-c2ncnc3[nH]ccc23)cn1 [RUXOLITINIB]	44.2	28.9	24.4	44.9		-5.22	-5.58		21.7	27.7
O=C(/C=C\n1cnc(-c2cc(C(F)(F)F)cc(C(F)(F)F)c2)n1)NNc1cnccn1 [SELINEXOR]	169	205	144	195		-5.23	-6.06		101	96.2
CCC(C)(C)C(=O)O[C@H]1C[C@@H](C)C=C2C=C[C@H](C)[C@H](CC[C@@H]3C[C@@H](O)CC(=O)O3)[C@H]21 [SIMVASTATIN]	39.1	24.4	29.8	63.6		-5.07	-4.94		22.6	53.9
CCc1c2c(nc3ccc(O)cc13)-c1cc3c(c(=O)n1C2)COC(=O)[C@]3(O)CC [SN-38]	125	65.4	68.7	167	-6.02	-6.77	-6.74	49	23.2	46.5
O=C(NCC1(c2nc(-c3ccccc3)cs2)CCOCC1)c1cccc(-c2noc(C(F)(F)F)n2)c1 [TMP269]	53.7	27.4	28	22.7	-4.89	-4.93	-4.9	44.2	21	25.1
